Measurements reported in publication PMC7985297 (Communications Biology, 2021).
Where “and” joins values, the source holds several entries; their conditions need not be identical. Equal values may be shown once.

What was measured:
[1] = test system: Ki-67, PSA and AR in LN95-D3 xenografts; assay: Immunohistochemistry of LN95-D3 xenografts (Ki-67, PSA, AR); assay type: in vivo, mice
Excerpt: Fig. 8 Immunohistochemistry of LN95-D3 xenografts. a Representative images showing the histomorphology and expression of Ki-67, PSA, and AR from harvested tumors. Scale bars represent 100 µm. Statistical analysis for b the percentage of Ki-67-positive tumor cells and for the expression of c PSA and d AR. Error bars represent the mean ± s.d.
Sections were cut from formalin-fixed, paraffin-embedded tumor tissue at a thickness of 5 µm, deparaffinized in xylene, and then rehydrated in alcohols and distilled water. Endogenous peroxidase was blocked by incubating with a 3% hydrogen peroxide solution for 5 min. […] PSA was detected using a monoclonal mouse anti-human PSA antibody concentrate (ER-PR8; Dako). A negative control without the primary antibody was included for each sample on the same slide. Antigen was detected with 3,3-diaminobenzidine (DAB) and hematoxylin was used for counterstaining. Images were captured on an Axio Imager M2 microscope (Zeiss) at ×200 magnification. The percentage of Ki-67-positive cells was determined with ImageJ using the Cell Counter plugin. At least 1000 cells were scored from three images of representative tumors for each treatment group. The intensity of DAB staining for PSA was quantified by ImageJ using color deconvolution and measuring the mean gray value for the DAB image, where optical density = log(max intensity/mean intensity), and a max intensity of 255 for an 8-bit image.

[2] = test system: LNCaP cells; assay: Senescence-associated β-galactosidase staining, LNCaP; assay type: cell-based, human; settings: ATRA 10 µM, 3 days
Excerpt: Supplementary Figure 6. […] ( a)
Staining of senescence-associated β-galactosidase (SA β-gal) activity in cell lines treated with vehicle
Original magnification ×100.
percentage of β-gal positive cells as means ± s.e.m. from 3 independent experiments, where at least
1,000 cells were scored for each group. (c) Representative Western blot showing the indicated cell […]

[3] = biological target: T1, Gal4-ARN fragments and Gal4-AR234–391 constructs (Homo sapiens, UniProt P10275, P311G); assay: Transactivation assay with Gal4-ARN fragments and Gal4-AR234–391 proline to glycine mutants; assay type: cell-based; settings: juglone 20 µM, IL-6 50 ng/mL, 24 h
T1 construct: expressed in transfected cells; host or cells: LNCaP
Experimental: (§1) Fig. 3 Pin1 interacts with the AR NTD and regulates transactivation. a, b Transactivation assays performed in LNCaP cells expressing a vector encoding the human AR NTD fused to a Gal4 DNA-binding domain (Gal4-ARN). […] Input samples show Pin1 expression from lysates before the pull-down. i Co-immunoprecipitation assay showing AR protein co-immunoprecipitated with STAT3 from LNCaP cells incubated with EPI-002 (EPI, 35 μM), juglone (JUG, 30 μM), or vehicle (VEH, DMSO), and IL-6 (50 ng/mL) for 6 h. j, k Levels of phosphorylated MAPK (isoforms p44 and p42) and phosphorylated STAT3 (Tyr705 and Ser727) from LNCaP cells pre-treated with juglone (20 µM) and then stimulated with IL-6 (50 ng/mL) for 15 min. Error bars show the mean ± s.e.m. *P < 0.05, **P < 0.01, ***P < 0.001; ns not significant.

[4] = biological target: T2, Gal4-ARN fragments and Gal4-AR234–391 constructs (Homo sapiens, UniProt P10275); assay: as above; assay type: cell-based; settings: juglone 20 µM, IL-6 50 ng/mL, 24 h
T2 construct: expressed in transfected cells; host or cells: LNCaP
Experimental: as §1

[5] = biological target: T3, Gal4-ARN fragments and Gal4-AR234–391 constructs (Homo sapiens, UniProt P10275, P259G); assay: as above; assay type: cell-based; settings: juglone 20 µM, IL-6 50 ng/mL, 24 h
T3 construct: expressed in transfected cells; host or cells: LNCaP
Experimental: as §1

[6] = biological target: T4, full-length AR (Homo sapiens, UniProt P10275, T878A); assay: PSA(6.1 kb)-luciferase AR-driven reporter assay in LNCaP cells; assay type: cell-based; settings: LNCaP, R1881 1 nM, 24 h; read-out: IC50, androgen-induced PSA(6.1 kb)-luciferase activity
T4 construct: Transcriptional activity of full-length AR was assessed in LNCaP cells; endogenous in cells; host or cells: LNCaP
T4 sequence (P10275 1-920 T878A): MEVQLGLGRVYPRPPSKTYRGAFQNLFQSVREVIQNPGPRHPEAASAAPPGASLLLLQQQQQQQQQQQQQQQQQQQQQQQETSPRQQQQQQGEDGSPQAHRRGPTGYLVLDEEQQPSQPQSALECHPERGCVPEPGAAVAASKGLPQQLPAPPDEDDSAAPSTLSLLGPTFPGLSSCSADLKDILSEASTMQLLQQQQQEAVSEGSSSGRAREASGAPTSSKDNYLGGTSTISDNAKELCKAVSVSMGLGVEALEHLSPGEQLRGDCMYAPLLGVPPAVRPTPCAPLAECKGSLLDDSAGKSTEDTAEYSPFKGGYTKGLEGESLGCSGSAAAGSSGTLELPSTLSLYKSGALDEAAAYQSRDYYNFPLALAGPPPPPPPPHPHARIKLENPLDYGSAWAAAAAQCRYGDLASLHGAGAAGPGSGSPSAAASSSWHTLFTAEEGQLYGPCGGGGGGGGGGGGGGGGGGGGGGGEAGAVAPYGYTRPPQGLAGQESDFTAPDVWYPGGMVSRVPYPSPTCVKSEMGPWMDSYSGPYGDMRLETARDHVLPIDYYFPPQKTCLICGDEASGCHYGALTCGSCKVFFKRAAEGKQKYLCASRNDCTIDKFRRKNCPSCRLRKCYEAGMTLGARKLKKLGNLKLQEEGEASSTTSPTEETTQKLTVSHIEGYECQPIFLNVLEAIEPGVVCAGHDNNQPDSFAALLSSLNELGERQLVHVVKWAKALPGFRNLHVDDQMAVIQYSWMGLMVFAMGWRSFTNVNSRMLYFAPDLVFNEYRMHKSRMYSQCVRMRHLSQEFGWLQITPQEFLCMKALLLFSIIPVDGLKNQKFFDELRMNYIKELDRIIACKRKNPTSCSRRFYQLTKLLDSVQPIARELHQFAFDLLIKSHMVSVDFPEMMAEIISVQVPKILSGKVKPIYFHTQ

[7] = biological target: T5, YFP-AR fusion protein (Homo sapiens, UniProt P10275); assay type: cell-based
T5 construct: expressed in transfected cells; host or cells: LNCaP
Experimental: Scores greater than 1 indicate nuclear localization. At least 50 cells were scored for each treatment.
AR translocation assays were performed by a modified protocol from Myung et al.[9]. Approximately 2.8 × 10^5 LNCaP cells were grown on coverslips in six-well plates and transiently transfected with 2 μg of an expression vector encoding a YFP-AR fusion protein. On the following day, cells were pre-treated with the indicated compounds for 1 h and stimulated with R1881 (1 nM) or a vehicle containing ethanol for 3 h. After incubating with compounds, cells were fixed with 4% paraformaldehyde, washed twice with PBS, and then counterstained with DAPI. Slides were examined on an Axiovert 200 Fluorescence Microscope (Zeiss, Oberkochen, Germany). The ratio of the YFP signal in the nucleus relative to the cytoplasm was quantified with ImageJ software. For each image, background fluorescence was measured and subtracted from experimental values. A total of at least 50 cells from nine images containing six or more cells per field were quantified to determine the nuclear to cytoplasmic YFP ratio for each treatment group.

T3 sequence (P10275 236-393 P259G): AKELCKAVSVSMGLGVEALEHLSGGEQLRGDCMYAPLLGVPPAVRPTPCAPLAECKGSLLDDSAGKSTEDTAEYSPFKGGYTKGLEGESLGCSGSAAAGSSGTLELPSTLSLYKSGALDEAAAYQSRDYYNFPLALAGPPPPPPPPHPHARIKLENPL
T5 sequence (P10275 whole entry, the tested form may be a part): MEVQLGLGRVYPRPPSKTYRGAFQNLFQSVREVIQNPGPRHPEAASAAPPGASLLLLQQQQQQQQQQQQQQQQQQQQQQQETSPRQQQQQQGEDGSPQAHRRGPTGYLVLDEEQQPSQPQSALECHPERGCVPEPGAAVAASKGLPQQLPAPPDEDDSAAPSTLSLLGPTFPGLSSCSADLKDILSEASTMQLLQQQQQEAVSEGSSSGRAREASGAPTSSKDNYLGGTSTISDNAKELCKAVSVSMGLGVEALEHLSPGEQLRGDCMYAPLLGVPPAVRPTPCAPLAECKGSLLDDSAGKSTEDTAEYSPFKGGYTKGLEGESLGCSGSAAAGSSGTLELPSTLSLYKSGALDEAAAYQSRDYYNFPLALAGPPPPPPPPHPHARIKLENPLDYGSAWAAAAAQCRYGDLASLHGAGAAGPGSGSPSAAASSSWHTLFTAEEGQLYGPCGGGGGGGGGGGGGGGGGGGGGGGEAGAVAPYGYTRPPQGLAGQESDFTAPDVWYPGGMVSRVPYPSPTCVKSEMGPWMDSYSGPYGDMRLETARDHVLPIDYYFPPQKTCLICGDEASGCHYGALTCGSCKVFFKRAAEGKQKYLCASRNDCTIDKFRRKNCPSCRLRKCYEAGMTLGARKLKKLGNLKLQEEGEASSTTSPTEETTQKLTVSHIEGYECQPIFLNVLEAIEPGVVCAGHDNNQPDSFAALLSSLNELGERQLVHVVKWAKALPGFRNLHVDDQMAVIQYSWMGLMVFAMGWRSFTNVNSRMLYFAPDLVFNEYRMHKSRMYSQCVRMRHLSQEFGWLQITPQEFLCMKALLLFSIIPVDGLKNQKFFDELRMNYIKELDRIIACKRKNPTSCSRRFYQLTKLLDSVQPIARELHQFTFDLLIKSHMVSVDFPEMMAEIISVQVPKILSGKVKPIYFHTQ
T1 sequence (P10275 236-393 P311G): as the sequence (P10275 236-393 P259G) above, with G24P, P76G counted along it

| Compound | effect on number of Ki-67-positive tumor cells ([1]; LN95-D3 xenografts) | levels of AR protein in xenografts (IHC) ([1]; LN95-D3 xenografts) | percentage of Ki-67-positive tumor cells (Fig. 8b) ([1]; LN95-D3 xenografts, ATRA 5 mg pellet, EPI-7170 30 mg/kg/d, one value per tumor, listed as CMC ATRA) | effect on PSA expression in xenografts (IHC) ([1]; compared to the control) | effect on percentage of SA β-gal-positive cells [2] | transactivation, Gal4-AR234–391 P309G (Fig. 3f) [3] | transactivation, AR234-391 (Fig. 3e) [4] | transactivation, Gal4-AR234–391 P257G (Fig. 3f) [5] | IC50 [6] | YFP-AR localization, ratio of YFP intensity nucleus to cytosol (Fig. 2h), EtOH [7] | YFP-AR localization, ratio of YFP intensity nucleus to cytosol (Fig. 2h), R1881 [7] |
| --- | --- | --- | --- | --- | --- | --- | --- | --- | --- | --- | --- |
| CC1=C(/C=C/C(C)=C/C=C/C(C)=C/C(=O)O)C(C)(C)CCC1 [ATRA, all-trans retinoic acid] | decreased the number of Ki-67-positive tumor cells in xenografts | decreased slightly | 8.32% and 15.81% and 16.91% | decreased | significantly increased the percentage of SA β-gal-positive cells for LNCaP and LN95 cells | – | – | – | – | – | – |
| O=C1C=CC(=O)c2c(O)cccc21 [juglone] | – | – | – | – | – | 4.289 and 4.331 and 7.708 | 5.441 and 3.73 and 3.732 | 5.034 and 6.44 and 8.824 | 10.9 µM | 0.76 and 0.781 and 0.791 | 1.983 and 2.303 and 2.076 |
